Reference: US10463644B2, “Uses of sesquiterpene lactone compounds and their derivatives in drugs preparation” (ACCENDATECH, priority 2013, dated 2019)
Where two headings read alike, the source gives them in different places.

Experiments:
[1] = test system: TNF-α secreted by synoviocyte; assay: Content of TNF-α in culture supernatant of synoviocyte of RA model rats given test compound; type: in vivo; conditions: rat RA model, dose 30 mg/kg.2d; normal control 0.38 ± 0.027, NaCl 0.74 ± 0.098; 30 mg/kg
From the text: (§1) Take Compound 1-50 prepared as per the method according to the present invention and employ the method provided in Reference to prepare model, group drugs and prepare culture supernatant of rat synoviocyte.
(§2) Employ the method provided in Reference to investigate the effects of the test compounds on the synoviocyte to secrete TNF-α and PGE2. Employ the method provided in Reference to investigate the effects of the test compounds on the synoviocyte to secrete IL-1β.
(§3) The experimental data of the test compound 1-50 at a dose of 30 mg/kg.2d as well as the normal control and NaCl group are as follows: […]

[2] = test system: IL-1β secreted by synoviocyte; assay: Content of IL-1β in culture supernatant of synoviocyte of RA model rats given test compound; type: in vivo; conditions: rat RA model, dose 30 mg/kg.2d; normal control 0.16 ± 0.034, NaCl 0.49 ± 0.136; 30 mg/kg
From the text: as §1, §2, §3

[3] = test system: PGE2 secreted by synoviocyte; assay: Content of PGE2 in culture supernatant of synoviocyte of RA model rats given test compound; type: in vivo; conditions: rat RA model, dose 30 mg/kg.2d; normal control 8.34 ± 1.29, NaCl 32.44 ± 10.32; 30 mg/kg
From the text: as §1, §2, §3

[4] = test system: cancer stem cells; assay: Survival rate of cancer stem cells after test compound is added (flow cytometry, Annexin V-FITC/PI, clinical specimen); type: cell-based, patient; conditions: Homo sapiens, 18 h
From the text: (§4) Take fresh or cryopreserved clinical specimen (acute myelogenous leukemia (AML, marker is CD34^+/CD38^+), chronic myelogenous leukemia (CML, Ph+/CD34+/CXCR4+), chronic lymphocytic leukemia (CLL,CD133+/CD19−/CD38−), skin cancer (CD34+), breast cancer (CD44+/CD24−/ESA+), ovarian cancer (CD44+/CD117+), brain tumor (CD133+) prostate cancer (CD44+/CD24−), head-neck squamous cell carcinoma (CD44+), laryngeal cancer (CD133+), pancreatic cancer (ESA+/CD44+/CD24+), retinoblastoma (ABCG2/ALDH1), Children hepatoblastoma (CD34+/THY1+/c-kit+), liver cancer (CD133+), malignant melanoma (CD133+), colorectal cancer (EpCAM^high/CD44+), colon adenocarcinoma (CD44^high), glioma (ABCG-2/BCRP1), gastrointestinal tumor (ABCG-2/BCRP1), nasopharynx cancer (ABCG2), brain glioma (Dlk-1/Pref-1), gastric cancer (CD45+), lung adenocarcinoma (Sca-1/CD45-/Pecam-/CD34+), lung cancer (CD133+CD34+CD44+)) of patient. Take the acute myelogenous leukemia as the example, conduct density gradient centrifugation with Ficoll and take out the middle mononuclear cells, re-suspend it with serum-free IMDM after centrifuged. Adjust the concentration of cells into 1×10^6/mL and lay 24-well plate with 1 mL in each well, and then treat 18 hours with the compound to select with corresponding concentration. Collect the cells and centrifuge them at 1500 rps for 8 minutes, re-suspend the precipitation with […], mark the antibodies related to leukemia stem cell, avoid light to incubate 30 minutes at room temperature and then centrifuge it at 1500 rps, then wash away the unbound antibody CD34^+CD38^+. Re-suspend it with 100 μl 1× Binding Buffer and add respectively 5 μl Annexin V-FITC and PI, then avoid light to incubate 15 minutes before add 200 μl 1× Binding Buffer, then use flow cytometry to examine the marked apoptosis within one hour.

[5] = test system: cancer cells; assay: Survival rate of cancer cells after test compound is added (flow cytometry, Annexin V-FITC/PI, clinical specimen); type: cell-based, patient; conditions: Homo sapiens, 18 h, read-out: Survival rate (%) All cells (Stem cells and ordinary cells)
From the text: as §4

[6] = Head and neck squamous cell carcinomas

CC1=C2CC[C@@](C)(O)[C@@H]2[C@H]2OC(=O)[C@@H](CN(C)C)[C@@H]2CC1 [Compound 23]
Content of TNF-α in culture supernatant of synoviocyte (x ± s) [1]: 0.63 ± 0.063 ng/mL | Content of IL-1β in culture supernatant of synoviocyte (x ± s) [2]: 0.36 ± 0.065 ng/mL | Content of PGE2 in culture supernatant of synoviocyte (x ± s) [3]: 21.71 ± 2.32 ng/mL | viability at 10 µM ([4]; AML): 85% | viability at 20 µM ([4]; AML): 72% | viability at 10 µM ([4]; Brain glioma): 84% | viability at 20 µM ([4]; Brain glioma): 76% | viability at 10 µM ([4]; Brain tumor): 85% | viability at 20 µM ([4]; Brain tumor): 73% | viability at 10 µM ([4]; Breast cancer): 84% | viability at 20 µM ([4]; Breast cancer): 74% | viability at 10 µM ([4]; CLL): 86% | viability at 20 µM ([4]; CLL): 74% | viability at 10 µM ([4]; CML): 87% | viability at 20 µM ([4]; CML): 71% | viability at 10 µM ([4]; Children hepatoblastoma): 85% | viability at 20 µM ([4]; Children hepatoblastoma): 79% | viability at 10 µM ([4]; Colon adenocarcinoma): 88% | viability at 20 µM ([4]; Colon adenocarcinoma): 81% | viability at 10 µM ([4]; Colorectal cancer): 79% | viability at 20 µM ([4]; Colorectal cancer): 72% | viability at 10 µM ([4]; Gastric cancer): 82% | viability at 20 µM ([4]; Gastric cancer): 77% | viability at 10 µM ([4]; Gastrointestinal tumor): 91% | viability at 20 µM ([4]; Gastrointestinal tumor): 82% | viability at 10 µM ([4]; Glioma): 87% | viability at 20 µM ([4]; Glioma): 76% | viability at 10 µM [4, 6]: 84% | viability at 20 µM [4, 6]: 78% | viability at 10 µM ([4]; Laryngeal cancer): 79% | viability at 20 µM ([4]; Laryngeal cancer): 73% | viability at 10 µM ([4]; Liver cancer): 82% | viability at 20 µM ([4]; Liver cancer): 79% | viability at 10 µM ([4]; Lung adenocarcinoma): 85% | viability at 20 µM ([4]; Lung adenocarcinoma): 82% | viability at 10 µM ([4]; Lung cancer): 85% | viability at 20 µM ([4]; Lung cancer): 78% | viability at 10 µM ([4]; Malignant melanoma): 82% | viability at 20 µM ([4]; Malignant melanoma): 76% | viability at 10 µM ([4]; Nasopharynx cancer): 85% | viability at 20 µM ([4]; Nasopharynx cancer): 74% | viability at 10 µM ([4]; Ovarian cancer): 87% | viability at 20 µM ([4]; Ovarian cancer): 75% | viability at 10 µM ([4]; Pancreatic cancer): 87% | viability at 20 µM ([4]; Pancreatic cancer): 77% | viability at 10 µM ([4]; Prostate cancer): 85% | viability at 20 µM ([4]; Prostate cancer): 77% | viability at 10 µM ([4]; Retinoblastoma): 82% | viability at 20 µM ([4]; Retinoblastoma): 74% | viability at 10 µM ([4]; Skin cancer): 85% | viability at 20 µM ([4]; Skin cancer): 75% | viability at 10 µM ([5]; AML): 92% | viability at 20 µM ([5]; AML): 84% | viability at 10 µM ([5]; Brain glioma): 88% | viability at 20 µM ([5]; Brain glioma): 85% | viability at 10 µM ([5]; Brain tumor): 89% | viability at 20 µM ([5]; Brain tumor): 85% | viability at 10 µM ([5]; Breast cancer): 89% | viability at 20 µM ([5]; Breast cancer): 86% | viability at 10 µM ([5]; CLL): 95% | viability at 20 µM ([5]; CLL): 85% | viability at 10 µM ([5]; CML): 91% | viability at 20 µM ([5]; CML): 79% | viability at 10 µM ([5]; Children hepatoblastoma): 93% | viability at 20 µM ([5]; Children hepatoblastoma): 86% | viability at 10 µM ([5]; Colon adenocarcinoma): 91% | viability at 20 µM ([5]; Colon adenocarcinoma): 89% | viability at 10 µM ([5]; Colorectal cancer): 88% | viability at 20 µM ([5]; Colorectal cancer): 81% | viability at 10 µM ([5]; Gastric cancer): 86% | viability at 20 µM ([5]; Gastric cancer): 84% | viability at 10 µM ([5]; Gastrointestinal tumor): 94% | viability at 20 µM ([5]; Gastrointestinal tumor): 88% | viability at 10 µM ([5]; Glioma): 94% | viability at 20 µM ([5]; Glioma): 87% | viability at 10 µM [5, 6]: 91% | viability at 20 µM [5, 6]: 88% | viability at 10 µM ([5]; Laryngeal cancer): 88% | viability at 20 µM ([5]; Laryngeal cancer): 82% | viability at 10 µM ([5]; Liver cancer): 88% | viability at 20 µM ([5]; Liver cancer): 87% | viability at 10 µM ([5]; Lung adenocarcinoma): 87% | viability at 20 µM ([5]; Lung adenocarcinoma): 87% | viability at 10 µM ([5]; Lung cancer): 88% | viability at 20 µM ([5]; Lung cancer): 84% | viability at 10 µM ([5]; Malignant melanoma): 89% | viability at 20 µM ([5]; Malignant melanoma): 86% | viability at 10 µM ([5]; Nasopharynx cancer): 94% | viability at 20 µM ([5]; Nasopharynx cancer): 81% | viability at 10 µM ([5]; Ovarian cancer): 91% | viability at 20 µM ([5]; Ovarian cancer): 84% | viability at 10 µM ([5]; Pancreatic cancer): 90% | viability at 20 µM ([5]; Pancreatic cancer): 86% | viability at 10 µM ([5]; Prostate cancer): 92% | viability at 20 µM ([5]; Prostate cancer): 89% | viability at 10 µM ([5]; Retinoblastoma): 91% | viability at 20 µM ([5]; Retinoblastoma): 85% | viability at 10 µM ([5]; Skin cancer): 95% | viability at 20 µM ([5]; Skin cancer): 87%
